{
  "source": "ChEMBL document CHEMBL5120801",
  "about": "“Targeting Bromodomain-Selective Inhibitors of BET Proteins in Drug Discovery and Development” (J Med Chem, 2022)",
  "key": {"MV4-11 [1]": {"test_system": "MV4-11", "assay": "Antiproliferative activity against human MV4-11 cells by CCK-8 assay", "type": "functional, cell-based"}, "Interleukin-1 beta": {"target": "T1, Interleukin-1 beta (Mus musculus, UniProt P10749)", "T1 sequence (P10749 whole entry)": "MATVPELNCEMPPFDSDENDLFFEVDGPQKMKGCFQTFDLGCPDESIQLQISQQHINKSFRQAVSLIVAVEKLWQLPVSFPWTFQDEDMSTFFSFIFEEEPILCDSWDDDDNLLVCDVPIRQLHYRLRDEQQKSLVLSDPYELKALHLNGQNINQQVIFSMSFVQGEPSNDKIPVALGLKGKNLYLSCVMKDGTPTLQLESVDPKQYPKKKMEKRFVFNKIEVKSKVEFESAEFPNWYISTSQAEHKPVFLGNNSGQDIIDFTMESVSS", "assay": "Inhibition of IL-1beta in mouse BMDM cells", "type": "cell-based"}, "MV4-11 [2]": {"test_system": "MV4-11", "assay": "Antiproliferative activity against human MV4-11 cells by Cell Titer Glo assay", "type": "functional, cell-based"}, "[3]": {"target": "T2, Bromodomain-containing protein 4 (Homo sapiens, UniProt O60885)", "assay": "Binding affinity to BRD4-BD1 (unknown origin)"}, "[4]": {"target": "T2, Bromodomain-containing protein 4", "assay": "Binding affinity to BRD4-BD2 (unknown origin)"}},
  "data": [
    {"smiles": "O=c1cc(-c2ccc(O)c(O)c2)oc2c(O)c(O)ccc12", "values": [
      {"measurement": "IC50", "setting": "MV4-11 [1]", "result": 30200, "unit": "nM"}
    ]},
    {"smiles": "COc1cc(OC)c2c(=O)[nH]c(-c3cc(C)c(OCCN4CCCC4)c(C)c3)nc2c1", "values": [
      {"measurement": "IC50", "setting": "Interleukin-1 beta", "result": 2100, "unit": "nM"}
    ]},
    {"smiles": "CC(=O)N1c2ccc(-c3cc[nH]n3)cc2[C@H](Nc2ccc(C#N)cc2)C[C@@H]1C", "values": [
      {"measurement": "IC50", "setting": "MV4-11 [2]", "result": 8, "unit": "nM"}
    ]},
    {"smiles": "CCNC(=O)C1=CC2C(c3cc(S(=O)(=O)CC)ccc3Oc3c(C)cc(F)cc3C)=CN(C)C(=O)C2N1", "note": "(stereo not given)", "values": [
      {"measurement": "Ki", "setting": "[3]", "result": 79, "unit": "nM"},
      {"measurement": "Ki", "setting": "[4]", "result": 1.3, "unit": "nM"}
    ]}
  ]
}
